Assay results from patent publication US20090123389A1, “Methods for modulating Th17 cell development in the treatment and prevention of cellulite” (priority 2007, published 2009).
pIC50: −log10 of the molar value.

Legend:
[1] = test system: human peripheral blood T cells; settings: cited from earlier work
[2] = human, in vivo; cited from earlier work
STAT3 = assay: Kinetics of STAT3 phosphorylation in developing Th17 cells; type: cell-based, mouse; settings: TGFβ plus IL-6
Description: FIG. 11A is a series of graphs depicting representative histograms displaying the kinetics of STAT3 phosphorylation in developing Th17 cells treated with or without HF. Resting naïve T cells (shaded peak), T cells activated in the presence of TGFβ plus IL-6 (TGFβ/IL-6) treated with 10 nM MAZ1310, TGFβ/IL-6-activated T cells treated with 5 nM HF, TGFβ/IL-6-activated T cells treated with 10 nM HF. T cells were fixed at the indicated times and intracellular phospho-STAT3 staining was performed.
Whole cell lysates were generated at the indicated times following activation, and western blotting was performed using the indicated antibodies.
FACS analyses and sorting: All cell surface staining was performed in FACS buffer (PBS/2% FCS/0.1% NaN3) and antibodies were incubated with cells on ice for 20-30 minutes. Cells were washed with FACS buffer and fixed with FACS buffer plus 1% paraformaldehyde prior to data acquisition. For phospho-STAT3 intracellular staining, stimulated T cells cultured with or without TGFβ plus IL-6 for the indicated times were harvested on ice and fixed in PBS plus 2% paraformaldehyde for 10 minutes at 37° C. […] All FACS data was acquired on a FACSCalibur flow cytometer (BD Pharmingen) and analyzed using FlowJo software (Treestar, Inc., Ashland, Oreg.). […]

[3] = test system: B220+ B cells or CD8+ T cells; assay: B cell and CD8+ T cell proliferation and function; type: cell-based, mouse; settings: HF 1.25-40 nM titrated
Description: The non-specific effects of HF on B and CD8+ T cells were evaluated. B220+B cells or CD8+ T cells were isolated from the spleen and peripheral lymph nodes of C57B/6 mice. B cell proliferation and IL-6 production was induced by culturing the cells with LPS (0.5 μg/ml) for 4 days. The effects of HF on B cell function was determined by adding titrating amounts of HF (1.25 nM-40 nM) at the time of LPS stimulation. B cell proliferation was monitored by labeling cells with Carboxyfluorescein diacetate, succinimidyl ester (CFSE; 5 μM) prior to LPS stimulation and determining the rate of CFSE dilution after 4 days by flow cytometric analyses. LPS-induced IL-6 production by B cells was determined by intracellular staining on day 4, following PMA+Ionomycin+Brefeldin A re-stimulation as described above. For CD8+ T cell experiments, purified CD8+ T cells were labeled with CFSE as above and the T cells were activated using anti-CD3 (1 μg/ml) and anti-CD28 (1 μg/ml) antibodies. […] CD8+ T cell proliferation was determined by monitoring CFSE dilution on day 3-post activation; CD25 expression was determined by FACS staining on day 2 of culture; differentiation of CD8+ T cells into cytolytic T cells (CTL) was evaluated on day 4 by determining expression of IFNγ and granzyme B following PMA+Ionomycin+Brefeldin A re-stimulation. […]

SMILES: O=C(CC1NCCCC1O)Cn1cnc2cc(Br)c(Cl)cc2c1=O (racemic) [HF, 7-bromo-6-chloro-3-[3-(3-hydroxy-2-piperidinyl)-2-oxopropyl]-4(3H)-quinazolinone]
- NFkB activation and T-cell secretion of cytokines ([1]; 80 nM HF, crude preparation of primary T-cells): broadly suppress
- pIC50 ([1]; Lieba studies, read-out: 50% inhibition of cytokine secretion, NF-kB activation, p38 phosphorylation): 7.40 to 7.70
- levels of cytokine secretion, NF-kB activation and p38 phosphorylation ([1]; anti-CD3 activated T cells): generally reduced levels
- HF in serum during topical treatment [2]: undetectable in serum
- STAT3 activation during the first 6 hours of Th17 differentiation (STAT3; 5 or 10 nM HF): did not interfere
- maintenance of STAT3 phosphorylation (STAT3; beginning around 12 hours-post activation): decreased the maintenance of STAT3 phosphorylation
- doses at which B and CD8+ T cell proliferation and function were profoundly impaired [3]: greater than 20 nM
- doses with little or no effect on B and CD8+ T cell function or proliferation [3]: lower than 10 nM
